# Measured values published in ChEMBL document CHEMBL3751730, “Synthesis and in vitro antitumor evaluation of dihydroartemisinin-cinnamic acid ester derivatives” (Eur J Med Chem, 2016).
# Key:
# A549 = assay: Antiproliferative activity against human A549 cells after 72 hrs by MTT assay; type: functional, cell-based; details: A549, 72 h
# [1] = Antiproliferative activity against human MDA-MB-435S cells after 72 hrs by MTT assay; type: functional, cell-based
# [2] = Antiproliferative activity against human PC3 cells after 72 hrs by MTT assay; type: functional, cell-based; details: PC-3, 72 h
# [3] = Antiproliferative activity against human SGC7901 cells after 72 hrs by MTT assay; type: functional, cell-based; details: SGC-7901, 72 h
# [4] = Selectivity index, ratio of IC50 for human L02 cells to IC50 for human A549 cells; type: functional
# [5] = Cytotoxicity against human L02 cells after 72 hrs by MTT assay; type: cell-based; details: L02, 72 h
# [6] = Drug degradation at 2 to 4 mg at 210 to 220 degC by thermogravimetric analysis in the presence of nitrogen gas; type: physicochemical; details: for degraded: in vivo, read-out: Drug degradation
# [7] = Chemical stability of the compound at 2 to 4 mg at 25 to 300 degC by differential scanning […] analysis in the presence of nitrogen gas; type: physicochemical
compound,measurement,setting,value
C[C@@H]1[C@H](OC(=O)/C=C/c2ccc(F)cc2)C[C@H]2[C@@H](C)[C@H](OC(=O)/C=C/c3ccc(F)cc3)O[C@@H]3O[C@@]4(C)CC[C@@H]1[C@]32OO4,IC50,A549,> 100 µM
same,IC50,[1],> 100 µM
same,IC50,[2],> 100 µM
same,IC50,[3],> 100 µM
COc1ccc(/C=C/C(=O)O[C@@H]2O[C@@H]3O[C@@]4(C)CC[C@H]5[C@H](C)[C@H](O)C[C@@H]([C@H]2C)[C@@]35OO4)cc1,IC50,A549,> 100 µM
same,IC50,[1],87.1 µM
same,IC50,[2],> 100 µM
same,IC50,[3],> 100 µM
COc1ccccc1/C=C/C(=O)O[C@@H]1O[C@@H]2O[C@@]3(C)CC[C@H]4[C@H](C)[C@H](OC(=O)/C=C/c5ccccc5OC)C[C@@H]([C@H]1C)[C@@]24OO3,IC50,A549,2.55 µM
same,IC50,[1],52.3 µM
same,IC50,[2],11.5 µM
same,IC50,[3],46.4 µM
C[C@@H]1[C@H](OC(=O)/C=C/c2ccccc2Cl)C[C@H]2[C@@H](C)[C@H](OC(=O)/C=C/c3ccccc3Cl)O[C@@H]3O[C@@]4(C)CC[C@@H]1[C@]32OO4,IC50,A549,96.2 µM
same,IC50,[1],> 100 µM
same,IC50,[2],76.2 µM
same,IC50,[3],> 100 µM
C[C@@H]1[C@H](O)C[C@H]2[C@@H](C)[C@H](OC(=O)/C=C/c3cccc(Cl)c3)O[C@@H]3O[C@@]4(C)CC[C@@H]1[C@]32OO4,IC50,A549,> 100 µM
same,IC50,[1],95.9 µM
same,IC50,[2],> 100 µM
same,IC50,[3],> 100 µM
O=c1[nH]cc(F)c(=O)[nH]1 [FLUOROURACIL],Ratio IC50,[4],3.83
same,IC50,[5],25.9 µM
same,IC50,[1],15.2 µM
same,IC50,[2],42.5 µM
same,IC50,[3],11.9 µM
COc1ccccc1/C=C/C(=O)O[C@@H]1O[C@@H]2O[C@@]3(C)CC[C@H]4[C@H](C)[C@H](O)C[C@@H]([C@H]1C)[C@@]24OO3,IC50,A549,> 100 µM
same,IC50,[1],74.1 µM
same,IC50,[2],74.9 µM
same,IC50,[3],> 100 µM
C[C@@H]1[C@H](O)C[C@H]2[C@@H](C)[C@H](OC(=O)CCc3ccccc3)O[C@@H]3O[C@@]4(C)CC[C@@H]1[C@]32OO4,IC50,A549,> 100 µM
same,IC50,[1],> 100 µM
same,IC50,[2],> 100 µM
same,IC50,[3],> 100 µM
C[C@@H]1[C@H](OC(=O)/C=C/c2ccccc2F)C[C@H]2[C@@H](C)[C@H](OC(=O)/C=C/c3ccccc3F)O[C@@H]3O[C@@]4(C)CC[C@@H]1[C@]32OO4,IC50,A549,4.66 µM
same,IC50,[1],18.8 µM
same,IC50,[2],12.5 µM
same,IC50,[3],> 100 µM
C[C@@H]1[C@H](O)C[C@H]2[C@@H](C)[C@H](OC(=O)/C=C/c3ccccc3Cl)O[C@@H]3O[C@@]4(C)CC[C@@H]1[C@]32OO4,IC50,A549,> 100 µM
same,IC50,[1],> 100 µM
same,IC50,[2],> 100 µM
same,IC50,[3],> 100 µM
C[C@@H]1[C@H](O)C[C@H]2[C@@H](C)[C@H](OC(=O)/C=C/c3ccc([N+](=O)[O-])cc3)O[C@@H]3O[C@@]4(C)CC[C@@H]1[C@]32OO4,IC50,A549,> 100 µM
same,IC50,[1],> 100 µM
same,IC50,[2],> 100 µM
same,IC50,[3],> 100 µM
C[C@@H]1[C@H](O)C[C@H]2[C@@H](C)[C@H](OC(=O)/C=C/c3ccc(Br)cc3)O[C@@H]3O[C@@]4(C)CC[C@@H]1[C@]32OO4,IC50,A549,> 100 µM
same,IC50,[1],84.5 µM
same,IC50,[2],> 100 µM
same,IC50,[3],> 100 µM
C[C@@H]1[C@H](O)C[C@H]2[C@@H](C)[C@H](OC(=O)/C=C/c3ccc(C(F)(F)F)cc3)O[C@@H]3O[C@@]4(C)CC[C@@H]1[C@]32OO4,IC50,A549,> 100 µM
same,IC50,[1],> 100 µM
same,IC50,[2],> 100 µM
same,IC50,[3],85.7 µM
COc1cccc(/C=C/C(=O)O[C@@H]2O[C@@H]3O[C@@]4(C)CC[C@H]5[C@H](C)[C@H](O)C[C@@H]([C@H]2C)[C@@]35OO4)c1,IC50,A549,> 100 µM
same,IC50,[1],> 100 µM
same,IC50,[2],> 100 µM
same,IC50,[3],> 100 µM
C[C@@H]1[C@H](O)C[C@H]2[C@@H](C)[C@H](OC(=O)/C=C/c3ccc(Cl)cc3)O[C@@H]3O[C@@]4(C)CC[C@@H]1[C@]32OO4,IC50,A549,> 100 µM
same,IC50,[1],98.6 µM
same,IC50,[2],> 100 µM
same,IC50,[3],> 100 µM
C[C@@H]1[C@H](OC(=O)/C=C/c2ccc(C(F)(F)F)cc2)C[C@H]2[C@@H](C)[C@H](OC(=O)/C=C/c3ccc(C(F)(F)F)cc3)O[C@@H]3O[C@@]4(C)CC[C@@H]1[C@]32OO4,IC50,A549,5.08 µM
same,IC50,[1],67.7 µM
same,IC50,[2],43.5 µM
same,IC50,[3],39.4 µM
COc1ccc(/C=C/C(=O)O[C@@H]2O[C@@H]3O[C@@]4(C)CC[C@H]5[C@H](C)[C@H](OC(=O)/C=C/c6ccc(OC)c(OC)c6OC)C[C@@H]([C@H]2C)[C@@]35OO4)c(OC)c1OC,IC50,A549,1.66 µM
same,Ratio IC50,[4],34.88
same,IC50,[5],57.9 µM
same,IC50,[1],16.6 µM
same,IC50,[2],2.95 µM
same,IC50,[3],19.6 µM
C[C@@H]1[C@H](OC(=O)/C=C/c2cccc(Cl)c2)C[C@H]2[C@@H](C)[C@H](OC(=O)/C=C/c3cccc(Cl)c3)O[C@@H]3O[C@@]4(C)CC[C@@H]1[C@]32OO4,IC50,A549,2.72 µM
same,IC50,[1],22.4 µM
same,IC50,[2],11.1 µM
same,IC50,[3],12 µM
C[C@@H]1[C@H](O)C[C@H]2[C@@H](C)[C@H](OC(=O)/C=C/c3ccccc3)O[C@@H]3O[C@@]4(C)CC[C@@H]1[C@]32OO4,IC50,A549,> 100 µM
same,IC50,[1],76.3 µM
same,IC50,[2],> 100 µM
same,IC50,[3],> 100 µM
COc1ccc(/C=C/C(=O)O[C@@H]2O[C@@H]3O[C@@]4(C)CC[C@H]5[C@H](C)[C@H](O)C[C@@H]([C@H]2C)[C@@]35OO4)c(OC)c1OC,IC50,A549,40.1 µM
same,IC50,[1],69.9 µM
same,IC50,[2],> 100 µM
same,IC50,[3],> 100 µM
COc1ccc(/C=C/C(=O)O[C@@H]2O[C@@H]3O[C@@]4(C)CC[C@H]5[C@H](C)[C@H](OC(=O)/C=C/c6ccc(OC)cc6)C[C@@H]([C@H]2C)[C@@]35OO4)cc1,IC50,A549,7.01 µM
same,IC50,[1],41.5 µM
same,IC50,[2],9.58 µM
same,IC50,[3],28.3 µM
C[C@@H]1[C@H](OC(=O)/C=C/c2ccc(Br)cc2)C[C@H]2[C@@H](C)[C@H](OC(=O)/C=C/c3ccc(Br)cc3)O[C@@H]3O[C@@]4(C)CC[C@@H]1[C@]32OO4,IC50,A549,35.3 µM
same,IC50,[1],> 100 µM
same,IC50,[2],19.7 µM
same,IC50,[3],35.8 µM
C[C@H]1[C@@H](O)O[C@@H]2O[C@@]3(C)CC[C@H]4[C@H](C)CC[C@@H]1[C@@]24OO3 [ARTENIMOL],IC50,A549,80.4 µM
same,Ratio IC50,[4],1.81
same,Stability,[6],Unstable
same,IC50,[5],146 µM
same,IC50,[1],21.9 µM
same,IC50,[2],> 100 µM
same,IC50,[3],> 100 µM
C[C@@H]1[C@H](O)C[C@H]2[C@@H](C)[C@H](OC(=O)/C=C/c3ccc(F)cc3)O[C@@H]3O[C@@]4(C)CC[C@@H]1[C@]32OO4,IC50,A549,> 100 µM
same,IC50,[1],> 100 µM
same,IC50,[2],> 100 µM
same,IC50,[3],> 100 µM
C[C@@H]1[C@H](OC(=O)/C=C/c2ccc(Cl)cc2)C[C@H]2[C@@H](C)[C@H](OC(=O)/C=C/c3ccc(Cl)cc3)O[C@@H]3O[C@@]4(C)CC[C@@H]1[C@]32OO4,IC50,A549,1.5 µM
same,degraded,[6],1%
same,IC50,[1],58.3 µM
same,Stability,[7],Stable
same,IC50,[2],6.76 µM
same,IC50,[3],21.3 µM
COc1ccc(/C=C/C(=O)O[C@@H]2O[C@@H]3O[C@@]4(C)CC[C@H]5[C@H](C)[C@H](O)C[C@@H]([C@H]2C)[C@@]35OO4)cc1OC,IC50,A549,28.9 µM
same,IC50,[1],61 µM
same,IC50,[2],> 100 µM
same,IC50,[3],> 100 µM
C[C@@H]1[C@H](OC(=O)/C=C/c2ccc([N+](=O)[O-])cc2)C[C@H]2[C@@H](C)[C@H](OC(=O)/C=C/c3ccc([N+](=O)[O-])cc3)O[C@@H]3O[C@@]4(C)CC[C@@H]1[C@]32OO4,IC50,A549,> 100 µM
same,IC50,[1],> 100 µM
same,IC50,[2],10.7 µM
same,IC50,[3],18.8 µM
C[C@@H]1[C@H](OC(=O)/C=C/c2c(Cl)cccc2Cl)C[C@H]2[C@@H](C)[C@H](OC(=O)/C=C/c3c(Cl)cccc3Cl)O[C@@H]3O[C@@]4(C)CC[C@@H]1[C@]32OO4,IC50,A549,> 100 µM
same,IC50,[1],> 100 µM
same,IC50,[2],> 100 µM
same,IC50,[3],60.8 µM
Cc1ccc(/C=C/C(=O)O[C@@H]2O[C@@H]3O[C@@]4(C)CC[C@H]5[C@H](C)[C@H](OC(=O)/C=C/c6ccc(C)cc6)C[C@@H]([C@H]2C)[C@@]35OO4)cc1,IC50,A549,> 100 µM
same,IC50,[1],> 100 µM
same,IC50,[2],87.2 µM
same,IC50,[3],> 100 µM
Cc1ccc(/C=C/C(=O)O[C@@H]2O[C@@H]3O[C@@]4(C)CC[C@H]5[C@H](C)[C@H](O)C[C@@H]([C@H]2C)[C@@]35OO4)cc1,IC50,A549,> 100 µM
same,IC50,[1],> 100 µM
same,IC50,[2],> 100 µM
same,IC50,[3],> 100 µM
C[C@@H]1[C@H](OC(=O)CCc2ccccc2)C[C@H]2[C@@H](C)[C@H](OC(=O)CCc3ccccc3)O[C@@H]3O[C@@]4(C)CC[C@@H]1[C@]32OO4,IC50,A549,43.2 µM
same,IC50,[1],> 100 µM
same,IC50,[2],20.5 µM
same,IC50,[3],87.8 µM
C[C@@H]1[C@H](OC(=O)/C=C/c2ccccc2)C[C@H]2[C@@H](C)[C@H](OC(=O)/C=C/c3ccccc3)O[C@@H]3O[C@@]4(C)CC[C@@H]1[C@]32OO4,IC50,A549,4.42 µM
same,degraded,[6],1%
same,IC50,[1],18 µM
same,Stability,[7],Stable
same,IC50,[2],36 µM
same,IC50,[3],12.8 µM
C[C@@H]1[C@H](O)C[C@H]2[C@@H](C)[C@H](OC(=O)/C=C/c3ccccc3F)O[C@@H]3O[C@@]4(C)CC[C@@H]1[C@]32OO4,IC50,A549,92.7 µM
same,IC50,[1],47.1 µM
same,IC50,[2],89.6 µM
same,IC50,[3],> 100 µM
COc1cccc(/C=C/C(=O)O[C@@H]2O[C@@H]3O[C@@]4(C)CC[C@H]5[C@H](C)[C@H](OC(=O)/C=C/c6cccc(OC)c6)C[C@@H]([C@H]2C)[C@@]35OO4)c1,IC50,A549,0.8 µM
same,degraded,[6],1%
same,IC50,[1],18.2 µM
same,Stability,[7],Stable
same,IC50,[2],43.9 µM
same,IC50,[3],16.2 µM
